Experiments:
Assay type in all cases: cell-based
HCT116 cells [1] = test: Lipid peroxidation detection (BODIPY 581/591 C11), HCT116; details: 24 h, low micromolar concentrations
Protocol: Jurkat cells (5 × 10^5), HCT116 cells (3 × 10^5) and THP-1 cells (5 × 10^5) were seeded on 6-well plates. The next day, cells were treated with indicated concentrations of compounds for 24 or 48 h. Then, cells were stained with 1.3 μM of BODIPY 581/591 C11 (Invitrogen, D3861) for another 1 h at 37 °C. Later, cells were harvested and washed three times with ice-cold PBS, followed by resuspended in FACS buffer (1% BSA in PBS). Lipid peroxidation was determined by NovoCyte Quanteon Flow Cytometer (Agilent Technologies, CA, USA).

HDAC11 = biological target: T1, HDAC11 (Homo sapiens, UniProt Q96DB2); test: HDAC11 level in Jurkat cells, Western blot; details: 6 h
T1 construct: endogenous in cells; host or cells: Jurkat
T1 sequence (Q96DB2 1-347): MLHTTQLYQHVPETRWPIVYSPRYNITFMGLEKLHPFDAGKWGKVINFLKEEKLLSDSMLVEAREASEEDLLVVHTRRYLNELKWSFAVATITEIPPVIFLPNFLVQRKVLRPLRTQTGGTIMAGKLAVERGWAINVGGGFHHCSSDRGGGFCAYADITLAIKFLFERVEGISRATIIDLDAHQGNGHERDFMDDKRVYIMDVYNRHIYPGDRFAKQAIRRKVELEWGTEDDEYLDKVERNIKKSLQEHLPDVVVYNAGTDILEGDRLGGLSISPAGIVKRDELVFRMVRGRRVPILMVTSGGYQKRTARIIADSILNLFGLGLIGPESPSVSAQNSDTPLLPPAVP

HEL cells = test: Cell viability MTS assay, HEL; details: ratio of IC50 values
Protocol: MTS assay was used to measure the cell viability. For single treatment, Jurkat, THP-1 and HEL (8000 cells/well), HCT116 and A549 (2000 cells/well) were seeded in 96-well plates in 100 μL complete medium. After overnight incubation, 50 μL of media containing various concentrations of compounds or the vehicle were added to each well. For cotreatment, cells were seeded in 96-well plates in 50 μL complete medium. After overnight incubation, 50 μL of Z-VAD-FMK, Nec-1, Fer-1, CQ, and other indicated compounds were added to each well. One hour later, 50 μL of media containing various concentrations of compounds were added to each well. After 72 h of treatment, 20 μL of CellTiter 96 AQueous One Solution reagent (Promega, Madison, USA) was added to each well according to manufacturer’s protocol. Plates were incubated at 37 °C for 1–2 h. The absorbance was determined at a wavelength of 490 nm using a Synergy H1 plate reader (Biotek, Winooski, VT, USA).

Jurkat cells [2] = test: Cell death determination by flow cytometry (Hoechst 33342/PI), Jurkat; details: 5 μM, 48 h
Protocol: Jurkat cells (5 × 10^5) were seeded on 6-well plates. The next day, cells were treated with indicated concentrations of compounds for 48 h. Cells were harvested after incubation, washed twice in cold PBS, centrifuged, and stained with 7 μM Hoechst 33342 and 2 μM of Propidium iodide (PI) sequentially, and then determined by NovoCyte Quanteon Flow Cytometer (Agilent Technologies, CA, USA). Cells stained only with Hoechst 33342 were counted as live cells, while cells stained with both Hoechst 33342 and PI were counted as dead cells.

IKZF1 = biological target: T2, IKZF1 (Homo sapiens, UniProt Q13422); test: IKZF1 level in Jurkat cells, Western blot; details: 6 h
T2 construct: endogenous in cells; host or cells: Jurkat

GSPT1 = biological target: T3, GSPT1 (Homo sapiens, UniProt P15170); test: GSPT1 level in Jurkat cells, Western blot; details: 6 h
T3 construct: endogenous in cells; host or cells: Jurkat

HCT116 cells [3] = test: Cell cycle analysis, HCT116; details: 48 h, control group 23.0%
Protocol: Jurkat cells (5 × 10^5) and HCT116 cells (3 × 10^5) were seeded on 6-well plates. The next day, cells were treated with indicated concentrations of compounds for 48 h. Cells were harvested after incubation, washed twice in cold PBS, centrifuged, and stained with a solution containing 20 μg/mL of Propidium iodide (PI) and 0.1% (v/v) Triton-X100 for 15 min at room temperature, followed by detection with NovoCyte Quanteon Flow Cytometer (Agilent Technologies, CA, USA).

HCT116 cells [4] = test: Apoptosis assay (Annexin V-FITC/PI flow cytometry), HCT116; set-up: Q1 (flow cytometry quadrant) / Q2 (flow cytometry quadrant) / Q3 (flow cytometry quadrant) / Q4 (flow cytometry quadrant): unit not given here; details: 48 h
Protocol: (§1) The cell apoptosis assay was performed using eBioscience Annexin V-FITC/PI Apoptosis Detection Kit (Thermo Fisher Scientific, Carlsbad, CA, USA). Jurkat cells (5 × 10^5) and HCT116 cells (3 × 10^5) were treated with different concentrations of test compounds for 24 or 48 h. Cells were harvested after incubation, washed twice in cold PBS, centrifuged, and resuspended in 1X annexin-binding buffer. According to the manufacturer’s instructions, cells were incubated with Annexin V and Propidium iodide (PI) sequentially. All samples were analyzed by NovoCyte Quanteon Flow Cytometer (Agilent Technologies, CA, USA).

[5] = tested on: acetyl-histone H3 (Ac-HH3); test: Ac-HH3 level in Jurkat cells, Western blot; details: 6 h
Jurkat cells [6] = test: Apoptosis assay (Annexin V-FITC/PI flow cytometry), Jurkat; details: 24 and 48 h
Protocol: as §1

T2 sequence (Q13422 whole entry): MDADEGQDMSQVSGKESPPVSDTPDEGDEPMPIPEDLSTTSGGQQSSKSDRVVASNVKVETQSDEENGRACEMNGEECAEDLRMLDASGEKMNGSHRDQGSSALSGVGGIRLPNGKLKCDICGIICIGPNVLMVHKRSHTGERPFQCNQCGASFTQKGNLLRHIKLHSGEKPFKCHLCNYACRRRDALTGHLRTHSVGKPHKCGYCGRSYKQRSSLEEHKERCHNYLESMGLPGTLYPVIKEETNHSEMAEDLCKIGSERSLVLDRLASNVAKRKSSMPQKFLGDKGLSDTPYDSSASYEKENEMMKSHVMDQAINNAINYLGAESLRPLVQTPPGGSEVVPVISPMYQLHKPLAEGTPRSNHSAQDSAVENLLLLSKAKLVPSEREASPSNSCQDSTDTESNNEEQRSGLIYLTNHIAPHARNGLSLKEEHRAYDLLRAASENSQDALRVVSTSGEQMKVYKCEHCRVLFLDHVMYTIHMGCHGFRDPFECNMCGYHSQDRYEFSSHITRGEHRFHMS
T3 sequence (P15170 whole entry): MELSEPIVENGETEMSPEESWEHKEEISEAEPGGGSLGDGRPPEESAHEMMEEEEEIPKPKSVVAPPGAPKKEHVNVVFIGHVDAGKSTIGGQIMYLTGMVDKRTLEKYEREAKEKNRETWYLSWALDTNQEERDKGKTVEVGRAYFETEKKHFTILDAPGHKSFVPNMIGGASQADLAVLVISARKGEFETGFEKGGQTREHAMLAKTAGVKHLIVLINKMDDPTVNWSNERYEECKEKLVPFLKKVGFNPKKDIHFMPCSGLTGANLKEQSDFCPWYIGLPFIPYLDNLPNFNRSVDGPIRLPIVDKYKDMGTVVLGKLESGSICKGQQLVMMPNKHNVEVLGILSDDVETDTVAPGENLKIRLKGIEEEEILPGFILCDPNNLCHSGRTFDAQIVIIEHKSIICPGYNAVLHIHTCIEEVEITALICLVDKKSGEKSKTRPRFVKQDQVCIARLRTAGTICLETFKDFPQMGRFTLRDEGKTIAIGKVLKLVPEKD

SMILES: CCCCCCNNC(=O)c1ccc(CNC(=O)CN2CCC(c3ccc(NC4CCC(=O)NC4=O)cc3)CC2)cc1 (stereo not shown) [Z16, 2-(4-(4-((2,6-Dioxopiperidin-3-yl)amino)phenyl)piperidin-1-yl)-N-(4-(2-hexylhydrazine-1-carbonyl)benzyl)acetamide]
- lipid peroxidation (in words) (HCT116 cells [1]): induced lipid peroxidation in a dose-dependent manner
- HDAC11 degradation (in words) (HDAC11): no obvious
- less potent than SAHA against HEL cells (HEL cells): about 10 fold
- cell death induced (Jurkat cells [2]): 10%
- intracellular level of IKZF1 (in words) (IKZF1): did not significantly affect
- intracellular level of GSPT1 (in words) (GSPT1): did not significantly affect
- proportion of cells at G2/M phase (HCT116 cells [3]; 0.13 μM): 24.1%
- proportion of cells at G2/M phase (HCT116 cells [3]; 0.37 μM): 26.4%
- proportion of cells at G2/M phase (HCT116 cells [3]; 1.1 μM): 26.2%
- proportion of cells at G2/M phase (HCT116 cells [3]; 3.3 μM): 38.8%
- Q1 (flow cytometry quadrant) (HCT116 cells [4]; 1.1 μM): 4.38
- Q2 (flow cytometry quadrant) (HCT116 cells [4]; 1.1 μM): 5.93
- Q3 (flow cytometry quadrant) (HCT116 cells [4]; 1.1 μM): 10.3
- Q4 (flow cytometry quadrant) (HCT116 cells [4]; 1.1 μM): 79.4
- Q1 (flow cytometry quadrant) (HCT116 cells [4]; 3.3 μM): 2.37
- Q2 (flow cytometry quadrant) (HCT116 cells [4]; 3.3 μM): 32.3
- Q3 (flow cytometry quadrant) (HCT116 cells [4]; 3.3 μM): 44.6
- Q4 (flow cytometry quadrant) (HCT116 cells [4]; 3.3 μM): 20.7
- apoptosis induced (HCT116 cells [4]; 3.3 μM): over 70%
- Q1 (flow cytometry quadrant) (HCT116 cells [4]; 10 μM): 2.80
- Q2 (flow cytometry quadrant) (HCT116 cells [4]; 10 μM): 57.3
- Q3 (flow cytometry quadrant) (HCT116 cells [4]; 10 μM): 24.9
- Q4 (flow cytometry quadrant) (HCT116 cells [4]; 10 μM): 15.1
- level of Ac-HH3 at 1 μM (in words) [5]: significantly increase
- induction of apoptosis (in words) (Jurkat cells [6]): neither Z16 nor SAHA could effectively induce apoptosis
